# Test results taken from patent US10106515B2, “1-(cyclopent-2-en-1-yl)-3-(2-hydroxy-3-(arylsulfonyl)phenyl)urea derivatives as CXCR2 inhibitors” (GLAXOSMITHKLINE INTELLECTUAL PROPERTY DEVELOPMENT LIMITED, priority 2014, dated 2018).
# Legend:
# [1] = tested on: Rat oligodendrocyte precursor cells (OPCs); assay: OPC differentiation assay; assay type: cell-based; details: percentage of MBP+ cells
# Protocol: In the oligodendrocyte precursor cell (OPC) in vitro differentiation assay, purified or enriched OPCs are cultured and differentiated into immature oligodendrocytes, mature oligodendrocytes, and myelinating oligodendrocytes (Watkins et al. (2008) Neuron 60:555-569). Specific markers have been identified for each specific stage of OPC differentiation. Myelin basic proteins (MBP), a specific marker for matured and myelinating oligodendrocytes, is used as an indicator for OPC differentiation and maturation (Franklin et al. (2008) J Neurosci, 255 Suppl 1:19-25). The OPC differentiation assay provides a tool to screen the compounds with the potency of promoting OPC differentiation, which is an initial step for downstream remyelination repair in vivo after demyelination occurs in mutiple scelerosis (MS) patients.
# Rat oligodendrocyte precursor cells (OPCs) were obtained from P1 pups and were cultured in DMEM/20S medium (DMEM with 20% FBS, 4 mM L-Glutamine, 1 mM sodium pyruvate and penicillin) (Zhang et al. (2007) Nature Protocol 2 (5):1044). […] The plate was read on Cellomics (SN: 04080019LH; P/N no 1-0117) using target activation protocol to calculate the percentage of MBP+ cells to reflect the differentiation of OPCs.
# [2] = tested on: upregulation of CD11b in GROα stimulated neutrophils in human whole blood; assay: Human whole blood assay (CD11b upregulation); assay type: cell-based; details: Homo sapiens, Neutrophil, inhibition of CD11b upregulation, GROα 33 nM final, flow cytometry, read-out: pIC50 (human whole blood assay) (converted)
# Procedure, shortened: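 Heparinised human whole blood preincubated 15 min at 37 °C with compound (10-point, 1:3 dilutions), then stimulated with 33 nM final GROα for 15 min at 37 °C. CD11b-FITC/CD16-PE staining on ice, lysis/fixation, flow cytometry; neutrophils gated by side scatter and CD16.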
smiles,measurement,setting,value
"CC1=CCC[C@H]1NC(=O)Nc1ccc(Cl)c(S(=O)(=O)[C@@]2(C)CCOC2)c1O [Compound 195, 1-(4-chloro-2-hydroxy-3-(((S)-3-methyltetrahydrofuran-3-yl)sulfonyl)phenyl)-3-((R)-2-methylcyclopent-2-en-1-yl)urea]",IC50,"[1]; Oligodendrocyte precursor cell, read-out: pIC50 (OPC differentiation assay) (converted)",6.31 µM
same,OPC differentiation,[1],promote OPC differentiation
same,IC50,[2],0.0398 µM
